Measurements from US7005274B1, “Methods and compositions for diagnosing and treating arthritic disorders and regulating bone mass” (MIGENIX Corp., priority 1999, dated 2006).

What was measured:
TC28 cells = assay: Intracellular ATP, luciferase assay; type: cell-based; conditions: 10 ng/ml TGFβ, 0.025 mM antimycin A, 0.02 μg/ml oligomycin; mean ± SD
Method: (§1) Levels of total cellular ATP were measured by a modification of luciferase-based assays known in the art (Lin et al., Anal. Biochem. 24:531–540, 1968); related assays and modifications may alternatively be used (see, e.g., Turman et al., In Vitro Cell. Dev. Biol. Anim. 32:1–4, 1996, for an assay format that uses a fluorescent plate reader). In brief, 2×10^6 cells were washed and pelleted in 10 ml phosphate-buffered saline (PBS). The cell pellets were snap-frozen in a dry ice/ethanol bath, after which […] of 0.2 M HCl was added, followed by 0.3 ml of 2 mM glycine (pH 9.0). Samples were heated at 100° C. for five minutes, then placed on ice. A standard curve was developed using 0 to 500 pmol of purified ATP (disodium salt). One hundred (100) μl of the cell extract, or purified ATP standard, was added to an equal volume of the ATP assay mixture (containing MgSO4, DTT, EDTA, luciferase and luciferin, all from the Sigma Bioluminescence Assay Kit and all diluted 1:25). Following a 5 second incubation and 15 second integration, samples were read on a TD-20/20 Luminometer (Turner Designs, Sunnyvale, Calif.).

chondrocytes [1] = assay: Extracellular and intracellular PPi elaboration; type: cell-based, human; conditions: for ability of TGFβ to increase extracellular and intracellular PPi: TGFβ 10 ng/ml; for basal PPi elaboration: absence of TGFβ
Method: One set of experiments described in this Example and presented in FIG. 4 examined the effects of agents that inhibit mitochondrial function on PPi elaboration in the absence of TGFβ. Chondrocytes (primary cultures and immortalized cell line TC-28) were prepared, cultured and treated with oligomycin (FIG. 4A), or with antimycin A (FIG. 4B), as in the preceding Examples. Extracellular PPi was determined radiometrically, and equalized for cellular DNA, according to the method of Terkeltaub et al. (Arthritis Rheum. 41:2152–2164, 1998). To determine intracellular PPi levels, washed cells were heated at 65° C. for 45 minutes, washed again and lysed in lysis buffer (1% Triton X-100, 1.6 mM MgCl2, 0.2 M Tris, pH 8.1), essentially according to the procedures described by Lotz et al. (Proc. Natl. Acad. Sci. U.S.A. 92:10364–10368, 1995).
Another set of experiments examined the ability of inhibitors of mitochondrial function to impact the ability of TGFβ to increase intracellular and extracellular PPi levels. Antimycin A- (FIG. 4B) or oligomycin-treated (FIG. 4A) chondrocytes, as well as control (untreated) cells, prepared as described in the preceding Examples, were incubated with or without TGFβ (10 ng/ml), and levels of extracellular and intracellular PPi levels were determined.

Articular Chondrocytes = assay: Intracellular ATP, luciferase assay; type: cell-based, human; conditions: 10 ng/ml TGFβ, 0.025 mM antimycin A, 0.02 μg/ml oligomycin; mean ± SD
Method: Human articular cartilage chondrocytes were obtained by collagenase digestion of articular cartilage samples, and subsequent monolayer culture, essentially as described by Terkeltaub et al. (Arthritis Rheum. 41:2152–2164, 1998). The starting material for these primary cultures was human articular cartilage excised during surgical joint replacement, or obtained at autopsy from normal or osteoarthritic joints. The articular chondrocytes were grown in Dulbecco's modified Eagle's Medium with high glucose (DMEM high glucose, Life Technologies, Inc. Grand Island, N.Y.) with 10% fetal calf serum (FCS), 1% glutamine, 100 U/ml penicillin and 50 μg/ml streptomycin (all reagents from Sigma, St. Louis, Mo., unless otherwise noted). Typically, only first passage cells were used in the studies described herein.
as §1, with “Calif.). […]” for “Calif.).”

chondrocytes [2] = assay: Collagen synthesis, [3H]-proline labeling, collagenase-sensitive protein; type: cell-based, human; conditions: 72 hours after addition; 0.025 mM antimycin A or non-lethal dose of oligomycin
Method: Collagen production was measured by tritiated proline ([^3H]-proline) biosynthetic protein labeling and measuring of collagenase-sensitive protein production (FIG. 2). Articular chondrocytres or TC28 cells (5×10^5 cells) were plated in 5 ml medium made 0.025 mM in antimycin A (or 0.02 μg/ml oligomycin, see next Example) by addition of the indicated agent every 24 hours. After the mitochondrial inhibitors were added, the cells were cultured for a further 48 hours. Medium was then removed and replaced with serum-free medium containing 5 μl/ml of [^3H]-proline, 50 μg/ml ascorbate and 100 μg/ml β-aminoproprionitrile, and incubation continued for an additional 8 hours.
Medium was then collected and precipitated with 15% trichloroacetic acid (TCA). Cells were extracted in 1 M NaCl, 1 mM N-ethylmaleimide, 0.2 mM phenylmethylsulfonyl fluoride, 0.75 mM EDTA and then precipitated with 15% TCA. The precipitates were washed 3 times with 5% TCA and once with 5% TCA containing 0.5% tannic acid. The pellet was dissolved and resuspended in 0.05 M Tris-HCl, pH 7.6, 5 mM CaCl2, 2.5 mM N-ethylmaleimide. Collagenase-sensitive protein per μg total protein was determined by incubation for 2 hours with 80 units/ml of collagenase, followed by addition of 10% TCA/0.5% tannic acid, and addition of the supernatant to scintillation fluid for standard scintillation counting in the tritium channel.

Compound | ATP (pmoles/μg DNA):TC28 cells (TC28 cells) [pmoles/μg DNA] | ability of TGFβ to increase extracellular and intracellular PPi (chondrocytes [1]) | basal PPi elaboration (chondrocytes [1]) | ATP (pmoles/μg DNA): Articular Chondrocytes (Articular Chondrocytes) [pmoles/μg DNA] | depression of collagen synthesis (chondrocytes [2])
CC[C@H]1/C=C/C=C/C[C@@H](C)[C@H](O)[C@@](C)(O)C(=O)[C@@H](C)[C@H](O)[C@@H](C)C(=O)[C@@H](C)[C@H](O)[C@@H](C)/C=C/C(=O)O[C@@H]2[C@H](C)[C@H](CC1)O[C@]1(CC[C@H](C)[C@H](C[C@@H](C)O)O1)[C@H]2C [oligomycin] | 198.6 ± 3.7 | abrogated the ability of TGFβ to increase extracellular and intracellular PPi | attenuated basal PPi elaboration | 221.2 ± 14.0 | more than 50%
antimycin A | 69.78 ± 4.0 | abrogated the ability of TGFβ to increase extracellular and intracellular PPi | attenuated basal PPi elaboration | 93.73 ± 5.9 | more than 50%
